“Also recorded” adds a separate entry of the source.
What was measured:
Type in all cases: cell-based, human
HL-60 cells [1] = assay: Binding of mouse E-selectin-Fc chimera (mCD62E) to cells by flow cytometry; conditions: 50 μM, 72 h
Protocol: Effect of HexNAc analogues on the expression of E-selectin ligands: HL-60 cells (3.0×10^5 cells/mL in 2.5 mL complete medium in 6-well plates) were incubated with D, 1a, 1b, or 1d (50 mM), along with untreated controls. After 72 h, cells were harvested and washed with PBS (3×0.5 mL). Prior to the last wash, cells were counted and aliquoted into 5.0×10^5 cells per sample. Cells were stained with mCD62E-Fc chimera protein (10 mg/mL) in PBS (50 mL) at 4° C. After 1.0 h, cells were washed with PBS (2×0.5 mL) and stained with PEconjugated F(ab′)2 goat anti-human Fc in PBS (50 mL) at 4° C. After 1.0 h, cells were washed with PBS (2×0.5 mL) and resuspended in 0.85% saline (0.2 mL) containing Sytox Red (dilution 1:1000; stock concentration of 5.0 mM). Additionally, control samples of cells treated with only the secondary antibody were prepared. Two replicate samples were analyzed for each condition and each sample was counted twice by flow cytometry as mentioned above.

HL-60 cells [2] = assay: Cell surface sialyl-Lewis-X (CD15s) by anti-CD15s (CSLEX1) flow cytometry
HL-60 cells [3] = assay: Western blot of total lysates for sLeX (CSLEX1) epitopes; conditions: HL-60 total lysates; 50 μM, 72 h
Protocol: Effect of ManNAc analogues on expression of CD15s epitopes: HL-60 cells (3.0×10^5 cells/mL in 10 mL complete medium in 10 cm diameter petri dishes) were incubated with D, 1a, 1b, 1d, 1e, 1f, or 1g (50 mM), along with untreated (U) controls. After 72 h, cells were harvested, washed with PBS (3×5.0 mL), and lysed in RIPA buffer (10^7 cells in […]), containing protease inhibitor cocktail (PIC, 1:100). Protein concentration of the soluble fraction was estimated using the Bradford assay. Proteins from total lysates were resolved by 7.5% SDS-PAGE and blotted onto nitrocellulose membrane (constant current of 250 mA for 3.0 h at 4° C.). Membranes were blocked using non-fat milk (NFM) (5.0% w/v) in PBS and incubated with primary antibodies (5.0 mL PBS containing 5.0% NFM) overnight at 4° C. Membranes were washed with 0.1% PBS-T (0.1% v/v tween-20 in PBS; 3×5.0 mL, five min each at room temperature) followed by incubation with appropriate fluorophore or horse radish peroxidase (HRP) conjugated secondary antibodies for 1.0 h at room temperature. Membranes were washed with 0.1% PBS-T (3×5.0 mL, five min each) and then either directly scanned using Amersham Typhoon fluorescence scanner or developed on photographic films after treatment with enhanced chemiluminescence reagents. At least two independent replicate experiments were performed for all the blots.
The primary and secondary antibodies employed, along with dilution and stock concentration, are given below: Primary antibodies: Anti-CD15s (CSLEX1; IgM, dilution 1:5000; stock concentration 0.5 mg/mL) Anti-CLA (HECA452; IgM, dilution 1:1000, stock concentration 0.5 mg/mL) […] (AC15, IgG, dilution 1:20000, stock concentration 2.2 mg/mL); and Secondary Antibodies: AlexaFluor488-conjugated anti-mouse IgM (1:10000, stock concentration 2.0 mg/mL) AlexaFluor488-conjugated anti-rat IgM (1:10000, stock concentration 0.5 mg/mL) HRP-conjugated anti-mouse IgG (1:10000, stock concentration 0.8 mg/mL) Cy5-conjugated donkey anti-mouse IgG (1:10000, stock concentration 1.4 mg/mL) AlexaFluorplus488-conjugated anti-mouse IgG (1:10000, stock conc. 2.0 mg/mL).

HL-60 cells [4] = assay: Far-western blot of total lysates with biotinylated SNA; conditions: HL-60 lysates; 50 μM, 72 h
Protocol: After 72 h, cells were harvested and lyzed in RIPA buffer containing PIC. Protein concentration in the soluble fraction was estimated using Bradford assay, subjected to 10% SDS-PAGE, blotted onto nitrocellulose membranes (constant current 250 mA, 3 h, 4° C.). Membranes were blocked using 2% w/v gelatin (5.0 mL) in 0.1% PBS-T at room temperature. After 1h, membranes were incubated with either bMAL-II (1:2000, stock conc. 1.0 mg/mL) or bSNA (1:5000, stock conc. 2.0 mg/mL) in 0.1% PBS-T (5.0 mL) at room temperature. After 1 h, membranes were washed using 0.1% PBS-T (6×5.0 mL, 5.0 min), followed by incubation with HRPconjugated avidin (1:50000, stock conc. 2.0 mg/mL) in 0.1% PBS-T (5.0 mL). After 30 min, membranes were washed using 0.1% PBS-T (6×5.0 mL, 5.0 min). Blots were developed using enhanced chemiluminescence substrate and photographic films. Blots using anti-β-actin (as mentioned above) were performed in parallel as loading controls. At least two independent replicate experiments were performed.

Jurkat cells [5] = assay: NeuAz expression on the cell surface by SPAAC with DBCO-Cy5 and flow cytometry, competition with Ac4ManNAz (1c); conditions: analogue 10 μM first, 1c 50 μM added at 12 h, estimation at 48 h
HL-60 cells [6] = assay: MAL-II lectin binding on intact cells by flow cytometry; conditions: 50 μM, 24 h
Jurkat cells [7] = assay: GalNAz expression on the cell surface, co-incubation with Ac4GalNAz (3), DBCO-Cy5 flow cytometry; conditions: 50 μM co-incubated with 3 (50 μM)
Protocol: Effect of ManNAc analogues on NeuAz and GalNAz expression: Jurkat cells were incubated under various conditions, namely, (i) D, 1c, 3, 1a, or 1b alone, (ii) 1a or 1b in combination with 1c, (iii) 1a or 1b in combination with 3. After 24 h, cells were harvested, washed, labelled using DBCO-Cy5 ([…]), processed, and analysed by flow cytometry as mentioned above
The high degree of selectivity of ManNAc analogues for processing by the sialic acid biosynthetic pathway was further confirmed by competitive studies using Ac4GalNAz (3) which is known to be processed through both the mucin-type O-glycosylation (MTOG) and β-O-GlcNAc-ylation pathways. The expression of NeuAz by 1c was suppressed by 1a or 1b (50 μM) to an extent of 50% upon co-incubation. By contrast, no reduction in the expression of N-azidoacetyl-D-galactosamine (GalNAz) on the cell surface was noticed upon co-incubation of 3 (50 μM) with 1a or 1b (50 μM) (FIG. 6E and FIG. 7C).

**Q.** How did the “change in mCD62E binding with respect to untreated cells (in words)” value (HL-60 cells [1]) turn out when `CC(=O)NC1C(OC(C)=O)OC(COC(C)=O)[C@@H](OC(C)=O)[C@@H]1OC(C)=O` (stereo partly drawn) [Compound 1d, 1,3,4,6-tetra-O-acetyl-2-acetylamino-2-deoxy-α/β-D-mannopyranose] was run?
**A.** no significant change

**Q.** And the “change in sLeX levels in time course (in words)” value (HL-60 cells [2]; 50 μM, time course)?
**A.** no change

**Q.** What about the “sLeX (CSLEX1) bands between 150-100 kDa in western blot” value (shortened to “sLeX … in western blot”) (HL-60 cells [3]) of the same molecule?
**A.** negative for sLeX epitopes; also recorded: not detectable

**Q.** Which “increase in mCD62E (E-selectin-Fc) binding with respect to untreated cells” value (HL-60 cells [1]) does the source give for `CC(=O)OC[C@H]1OC(OC(C)=O)[C@@H](NC(=O)C2CCC2)[C@@H](OC(C)=O)[C@@H]1OC(C)=O` (stereo partly drawn) [Compound 1b, (3S,4R,5S,6R)-6-(acetoxymethyl)-3-(cyclobutanecarboxamido)tetrahydro-2H-pyran-2,4,5-triyl triacetate] here?
**A.** 2.3 fold

**Q.** What about the “SNA epitopes in lectin blot compared to controls” value (HL-60 cells [4]) of the same molecule?
**A.** significant reduction

**Q.** What about the “maximum increase in sLeX levels on day 2” value (HL-60 cells [2]; single dosage 50 μM, day 2) of the same molecule?
**A.** 3.0 fold

**Q.** And the “sLeX levels by day 6 (in words)” value (HL-60 cells [2]; single dosage 50 μM, day 6)?
**A.** returned to normal levels

**Q.** And the “sLeX levels on day 6, fold higher” value (HL-60 cells [2]; single dosage 50 μM, day 6)?
**A.** approximately 2.3 fold

**Q.** What about the “day of peak sLeX expression” value (HL-60 cells [2]; single dosage 50 μM, time course day 1 to day 6) of the same molecule?
**A.** 2 days

**Q.** And the “suppression of NeuAz expression, delayed addition of 1c” value (Jurkat cells [5])?
**A.** 50%

**Q.** And the “sLeX … in western blot” value (HL-60 cells [3])?
**A.** Robust increase

**Q.** And the “MAL-II binding on intact cells compared to untreated cells” value (HL-60 cells [6])?
**A.** significant gain

**Q.** And the “reduction in expression of GalNAz on the cell surface” value (Jurkat cells [7])?
**A.** no reduction

**Q.** Which “change in mCD62E binding with respect to untreated cells (in words)” value (HL-60 cells [1]) does the source give for `CC(=O)OC[C@H]1O[C@H](OC(C)=O)[C@@H](NC(=O)C2CC2)[C@@H](OC(C)=O)[C@@H]1OC(C)=O` [Compound 1a, 1,3,4,6-tetra-O-acetyl-2-cyclopropanoylamino-2-deoxy-α-D-mannopyranose] here?
**A.** no significant change

**Q.** What about the “SNA epitopes in lectin blot compared to controls” value (HL-60 cells [4]) of the same molecule?
**A.** significant reduction

**Q.** And the “suppression of NeuAz expression, delayed addition of 1c” value (Jurkat cells [5])?
**A.** 30%

**Q.** And the “sLeX … in western blot” value (HL-60 cells [3])?
**A.** faint increase

**Q.** And the “MAL-II binding on intact cells compared to untreated cells” value (HL-60 cells [6])?
**A.** significant gain

**Q.** And the “reduction in expression of GalNAz on the cell surface” value (Jurkat cells [7])?
**A.** no reduction

Reference: patent US20240002424A1, “HEXOSAMINE COMPOUNDS AND METHODS THEREOF” (National Institute of Immunology, priority 2021, published 2024)
